Read-outs that look alike come from different tables or passages of the source.
How the values were obtained:
[1] = target: CDK2 (Homo sapiens, UniProt P24941); assay: CDK2 kinase inhibitory activity assay and selectivity over CDK12; type: biochemical; conditions: for IC50: kinase reaction 120 minutes, 33P-gamma-ATP; for CDK2/CDK12: ratio of CDK2 IC50 to CDK12 IC50
Description: (§1) Before initiating the CDK1 and CDK2 kinase reactions, each Example compound was dissolved and diluted in DMSO as a solvent across 9 concentration ranges at room temperature. The diluted solutions were then incubated with a mixture of kinase and substrate (and cofactors, if required) for 20 minutes. Next, radioisotope-labeled ATP (^33P-gamma-ATP) was added to proceed with the kinase reaction at room temperature for 120 minutes. After the reaction was completed, the reaction mixture was transferred to a filter paper that binds the radioisotope-labeled catalytic product (^33P-substrate). Unreacted ^33P-ATP was removed by washing with 0.75 % phosphoric acid, and then the radioactive phosphorylated substrate remaining on the filter paper was measured. Kinase activity data were expressed as a percentage of the kinase activity remaining in the test sample compared to a DMSO control group. The half-maximal inhibitory concentration (IC50) for each kinase was calculated using Prism software.
(§2) The CDK1 and CDK2 kinase inhibitory activities of the Example compounds measured by the above method were evaluated according to the following criteria, and the results are presented in Table 14.

[2] = target: CDK12 (Homo sapiens, UniProt Q9NYV4); assay: CDK12 kinase inhibitory activity assay (33P-ATP filter binding); type: biochemical
CDK12, sequence (Q9NYV4 whole entry, species assumed): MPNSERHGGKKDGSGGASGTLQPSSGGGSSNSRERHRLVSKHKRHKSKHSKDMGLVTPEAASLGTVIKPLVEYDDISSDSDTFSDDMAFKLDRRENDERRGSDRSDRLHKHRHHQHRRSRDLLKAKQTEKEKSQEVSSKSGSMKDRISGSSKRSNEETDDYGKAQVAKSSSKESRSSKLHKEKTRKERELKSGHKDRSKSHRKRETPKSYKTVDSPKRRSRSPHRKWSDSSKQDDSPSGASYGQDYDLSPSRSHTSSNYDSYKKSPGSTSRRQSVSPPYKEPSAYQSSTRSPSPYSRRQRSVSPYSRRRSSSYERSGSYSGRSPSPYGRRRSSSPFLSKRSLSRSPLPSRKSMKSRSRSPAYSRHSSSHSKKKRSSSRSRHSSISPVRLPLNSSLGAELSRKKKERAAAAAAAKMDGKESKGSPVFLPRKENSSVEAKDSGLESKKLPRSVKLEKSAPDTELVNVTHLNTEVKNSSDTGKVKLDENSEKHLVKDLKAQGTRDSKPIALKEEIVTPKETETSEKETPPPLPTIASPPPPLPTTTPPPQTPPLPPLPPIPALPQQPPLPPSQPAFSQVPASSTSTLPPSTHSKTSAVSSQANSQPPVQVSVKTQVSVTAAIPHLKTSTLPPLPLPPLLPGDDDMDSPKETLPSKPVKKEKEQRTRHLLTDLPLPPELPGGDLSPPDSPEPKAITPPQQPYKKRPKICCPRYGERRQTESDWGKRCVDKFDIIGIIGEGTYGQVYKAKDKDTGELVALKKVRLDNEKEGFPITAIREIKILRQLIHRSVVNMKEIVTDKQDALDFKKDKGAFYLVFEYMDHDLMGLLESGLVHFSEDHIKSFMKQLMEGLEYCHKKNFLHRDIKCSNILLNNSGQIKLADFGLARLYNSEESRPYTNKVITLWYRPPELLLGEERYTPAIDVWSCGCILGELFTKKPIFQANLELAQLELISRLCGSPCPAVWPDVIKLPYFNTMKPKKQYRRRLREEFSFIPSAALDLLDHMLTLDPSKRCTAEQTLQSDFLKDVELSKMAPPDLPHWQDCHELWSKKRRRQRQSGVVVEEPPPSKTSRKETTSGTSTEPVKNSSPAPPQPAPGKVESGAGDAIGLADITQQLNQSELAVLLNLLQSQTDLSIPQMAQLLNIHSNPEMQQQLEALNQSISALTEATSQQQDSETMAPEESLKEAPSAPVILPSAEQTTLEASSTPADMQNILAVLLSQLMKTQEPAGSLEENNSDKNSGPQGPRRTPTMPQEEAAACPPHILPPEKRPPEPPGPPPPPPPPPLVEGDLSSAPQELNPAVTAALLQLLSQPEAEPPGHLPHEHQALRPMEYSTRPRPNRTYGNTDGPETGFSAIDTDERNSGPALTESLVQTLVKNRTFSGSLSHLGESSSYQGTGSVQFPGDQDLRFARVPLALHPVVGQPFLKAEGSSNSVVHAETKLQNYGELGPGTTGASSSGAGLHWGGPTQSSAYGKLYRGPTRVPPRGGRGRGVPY
CDK12, sequence (O75909 whole entry partner, species assumed): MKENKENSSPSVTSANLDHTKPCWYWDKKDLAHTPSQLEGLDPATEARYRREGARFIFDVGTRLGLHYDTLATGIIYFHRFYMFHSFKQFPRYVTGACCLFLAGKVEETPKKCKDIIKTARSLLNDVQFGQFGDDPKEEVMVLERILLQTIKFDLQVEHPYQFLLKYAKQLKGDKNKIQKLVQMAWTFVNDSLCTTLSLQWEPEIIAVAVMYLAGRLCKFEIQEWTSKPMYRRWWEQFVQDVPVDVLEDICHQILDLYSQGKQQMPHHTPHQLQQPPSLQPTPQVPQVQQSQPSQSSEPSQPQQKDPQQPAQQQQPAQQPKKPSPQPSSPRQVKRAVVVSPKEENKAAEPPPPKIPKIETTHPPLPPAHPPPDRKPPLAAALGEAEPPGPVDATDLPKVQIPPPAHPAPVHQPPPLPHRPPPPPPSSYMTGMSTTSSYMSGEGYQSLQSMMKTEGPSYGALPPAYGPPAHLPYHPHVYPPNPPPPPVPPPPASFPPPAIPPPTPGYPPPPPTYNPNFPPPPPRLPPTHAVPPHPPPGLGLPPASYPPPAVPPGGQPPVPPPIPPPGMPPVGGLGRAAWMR
Summary of the method: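 Radiometric filter-binding read-out: after 20 min compound–enzyme/substrate pre-incubation across 9 concentrations, reaction started with ^33P-γ-ATP and run 120 min at room temperature. Filter-bound ^33P-substrate measured after 0.75 % phosphoric acid washes; remaining activity versus DMSO gives IC50.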

[3] = tested on: HS746T cells; assay: Gastric cancer cell proliferation inhibitory activity (Cell Counting Kit-8), HS746T; type: cell-based; conditions: Homo sapiens, 72 hours, Cell Counting Kit-8, relative IC50
Description: (§3) Experiments were performed using six types of gastric cancer cell lines to measure the cell proliferation inhibitory ability of each Example compound. NCI-N87, SNU601, KATO-III, MKN1, and AGS cells were dispensed into a 96-well plate at 100 µL of cell suspension per well using RPMI1640 medium containing 10 % FBS and 1 % PS, followed by incubation in a cell incubator at 37 °C and 5 % CO2. HS746T cells were dispensed into a 96-well plate at 100 µL of cell suspension per well using DMEM medium containing 10 % FBS and 1 % PS, followed by incubation in a cell incubator at 37 °C and 5 % CO2. The next day, each Example compound dissolved and diluted in DMSO across 10 concentration ranges and a DMSO control group were treated on the cells for 72 hours. After completion of the compound treatment, 10 µL of Cell Counting Kit-8 (Dojindo) reagent was added to each well of the 96-well plate, followed by incubation for 2 hours. […] were measured after inserting the 96-well plate into an Envision plate reader […]. Relative IC50 values were calculated by fitting a dose-response curve using Graphpad PRISM software.
(§4) The gastric cancer cell proliferation inhibitory activities of the Example compounds measured by the method described above were evaluated according to the following criteria, and the results are presented in Table 20.

[4] = tested on: MKN1; assay: Gastric cancer cell proliferation inhibitory activity (Cell Counting Kit-8), MKN1; type: cell-based; conditions: Homo sapiens, MKN-1; 72 hours, Cell Counting Kit-8, relative IC50
Description: as §3, §4

[5] = tested on: SW480; assay: Colorectal cancer cell proliferation inhibitory activity, SW480; type: cell-based; conditions: Homo sapiens, 72 hours, Cell Counting Kit-8, relative IC50
Description: as §3, with “seven” for “six”, “colorectal” for “gastric”, “DLD-1, LoVo, SW620, SW480, HCT116, HCT15,” for “NCI-N87, SNU601, KATO-III, MKN1,”, “HT29” for “AGS”, “RPMI1640” for “RPMI1640 medium containing 10 % FBS and 1 % PS, followed by incubation in a cell incubator at 37 °C and 5 % CO2. HS746T cells were dispensed into a 96-well plate at 100 µL of cell suspension per well using DMEM”
(§5) The colorectal cancer cell proliferation inhibitory activities of the Example compounds measured by the method described above were evaluated according to the following criteria, and the results are presented in Table 19.

[6] = tested on: Cyclin K; assay: Analysis of Cyclin K degradation ability in MKN45 gastric cancer cells (western blot); type: cell-based; conditions: 8 hours or 24 hours, compared to the negative control group (DMSO), FIGs. 4 and 5
Description: In order to confirm the Cyclin K degradation ability of the Example compounds, HCC70 breast cancer cells and MKN45 gastric cancer cells were cultured in RPMI-1640 medium supplemented with 10 % FBS, and then the cells were collected to prepare cell suspensions. The HCC70 breast cancer cell suspension was dispensed at a cell number of 2.0 X 10^6 per 6-well and cultured in a 5 % CO2 cell incubator at 37 °C for 24 hours, and the MKN45 gastric cancer cell suspension was dispensed at a cell number of 5.0 X 10^6 per 6-well and cultured in a 5 % CO2 cell incubator at 37 °C for 24 hours. The next day, each Example compound dissolved and diluted in DMSO across 4 to 5 concentration ranges and a negative control group (DMSO-treated group) were added to the 6-wells, and the HCC70 breast cancer cells were treated for 8 hours while the MKN45 gastric cancer cells were treated with the compounds for 8 hours or 24 hours. After completion of the compound treatment, the medium was removed, each cell was washed with PBS, and then 100 µL of RIPA buffer for cell lysis was added to each 6-well to collect cell lysates. The protein concentration of the cell lysates was quantified by the […], and loading buffer was added to adjust the protein concentration to 30 µg, followed by reaction at 85 °C for 10 minutes, centrifugation, and standing at room temperature. […]

[7] = tested on: AGS cells; assay: Gastric cancer cell proliferation inhibitory activity (Cell Counting Kit-8), AGS; type: cell-based; conditions: Homo sapiens, 72 hours, Cell Counting Kit-8, relative IC50
Description: as §3, §4

[8] = tested on: HCT15; assay: Colorectal cancer cell proliferation inhibitory activity, HCT15; type: cell-based; conditions: Homo sapiens, HCT-15; 72 hours, Cell Counting Kit-8, relative IC50
Description: as §3, with “seven” for “six”, “colorectal” for “gastric”, “DLD-1, LoVo, SW620, SW480, HCT116, HCT15,” for “NCI-N87, SNU601, KATO-III, MKN1,”, “HT29” for “AGS”, “RPMI1640” for “RPMI1640 medium containing 10 % FBS and 1 % PS, followed by incubation in a cell incubator at 37 °C and 5 % CO2. HS746T cells were dispensed into a 96-well plate at 100 µL of cell suspension per well using DMEM”
as §5

[9] = target: CDK1 (Homo sapiens, UniProt P06493); assay: CDK1 kinase inhibitory activity assay and selectivity over CDK12; type: biochemical; conditions: for IC50: kinase reaction 120 minutes, 33P-gamma-ATP
CDK1, sequence (P06493 whole entry, species assumed): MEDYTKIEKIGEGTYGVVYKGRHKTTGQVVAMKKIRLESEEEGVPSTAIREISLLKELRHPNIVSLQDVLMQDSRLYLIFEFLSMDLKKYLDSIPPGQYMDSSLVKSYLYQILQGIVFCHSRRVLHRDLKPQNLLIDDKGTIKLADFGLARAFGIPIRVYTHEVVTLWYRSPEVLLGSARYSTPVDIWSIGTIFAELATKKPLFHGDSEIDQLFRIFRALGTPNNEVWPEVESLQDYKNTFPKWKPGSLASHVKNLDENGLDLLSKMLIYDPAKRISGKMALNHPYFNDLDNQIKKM
CDK1, sequence (P14635 whole entry partner, species assumed): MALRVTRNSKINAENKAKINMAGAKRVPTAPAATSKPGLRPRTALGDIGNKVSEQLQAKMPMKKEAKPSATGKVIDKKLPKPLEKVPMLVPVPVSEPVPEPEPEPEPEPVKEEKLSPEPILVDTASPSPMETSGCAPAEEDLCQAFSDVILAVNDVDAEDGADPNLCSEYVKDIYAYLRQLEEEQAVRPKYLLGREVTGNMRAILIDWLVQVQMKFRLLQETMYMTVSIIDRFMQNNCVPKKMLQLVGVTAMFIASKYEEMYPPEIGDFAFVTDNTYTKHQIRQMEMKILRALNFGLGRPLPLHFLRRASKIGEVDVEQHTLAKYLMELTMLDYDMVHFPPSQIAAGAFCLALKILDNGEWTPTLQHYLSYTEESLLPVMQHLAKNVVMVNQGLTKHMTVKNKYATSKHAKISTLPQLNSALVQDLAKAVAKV
Description: as §1, §2

[10] = kinase reaction 120 minutes, 33P-gamma-ATP, read-out: CDK12 IC50

CN1CCN(c2cc(NCc3nc4ccc(F)c(F)c4[nH]3)c3ncc(C(F)(F)F)n3n2)CC1 [Example 8, N-((6,7-difluoro-1H-benzo[d]imidazol-2-yl)methyl)-6-(4-methylpiperazin-1-yl)-3-(trifluoromethyl)imidazo[1,2-b]pyridazin-8-amine]
IC50 [1]: > 1000 nM | CDK2/CDK12 [1]: B (100-fold < CDK1/CDK12 or CDK2/CDK12 ≤ 500-fold) | IC50 [2, 10]: < 100 nM | IC50 [3]: ≤ 200 nM | IC50 [4]: ≤ 200 nM | IC50 [5]: ≤ 200 nM | Cyclin K degradation ability [6]: strongly degrade Cyclin K | IC50 [7]: ≤ 200 nM | IC50 [8]: ≤ 200 nM | IC50 [9]: > 1000 nM | CDK1/CDK12 ([9]; ratio of CDK1 IC50 to CDK12 IC50): A (CDK1/CDK12 or CDK2/CDK12 > 500-fold)

CN1CCN(c2cc(NCc3nc4cc(Cl)c(Cl)cc4[nH]3)c3ncc(C(F)(F)F)n3n2)CC1 [Example 29, N-((5,6-dichloro-1H-benzo[d]imidazol-2-yl)methyl)-6-(4-methylpiperazin-1-yl)-3-(trifluoromethyl)imidazo[1,2-b]pyridazin-8-amine]
IC50 [1]: > 1000 nM | IC50 [2, 10]: < 100 nM | IC50 [9]: > 1000 nM

N#CC1CN(c2cc(NCc3nc4cc(Cl)c(Cl)cc4[nH]3)c3ncc(C(F)(F)F)n3n2)C1 [Example 30, 1-(8-(((5,6-dichloro-1H-benzol[d]imidazol-2-yl)methyl)amino)-3-(trifluoromethyl)imidazo[1,2-b]pyridazin-6-yl)azetidine-3-carbonitrile]
IC50 [1]: > 1000 nM | CDK2/CDK12 [1]: C (CDK1/CDK12 or CDK2/CDK12 ≤ 100-fold) | IC50 [2]: 100 to 500 nM | IC50 [9]: > 1000 nM

Nc1ncc(-c2cc(NCc3nc4cc(Cl)c(Cl)cc4[nH]3)c3ncc(C(F)(F)F)n3n2)cn1 [Example 40]
IC50 [1]: > 1000 nM | IC50 [2]: < 100 nM | IC50 [4]: ≤ 200 nM | IC50 [5]: ≤ 200 nM | Cyclin K degradation ability [6]: strongly degrade Cyclin K | IC50 [7]: ≤ 200 nM | IC50 [8]: ≤ 200 nM | IC50 [9]: > 1000 nM
